Results from the NIST ThermoML archive (doi:10.1016/j.fluid.2006.12.012).

Key:
[1] = refractive index (Na D-line) (dimensionless); settings: 298.15 K; 101.33 kPa; Liquid; Standard Abbe refractometry
[2] = 298.15 K; 101.33 kPa; Liquid; Pycnometric method
[3] = excess molar enthalpy (molar enthalpy of mixing); xn = mol fraction of the nth substance listed; settings: 298.15 K, 101 kPa, Liquid
[4] = xn = mol fraction of the nth substance listed; settings: 303.15 K, 101 kPa, Liquid, Direct dilatometry

CC(C)CO [2-methyl-1-propanol]
Settings | mass density [kg/m3] | refractive index
[1] | – | 1.3939
[2] | 794.34 | –

CC(C)CO [2-methyl-1-propanol] + CN1CCCC1=O
Settings | excess molar enthalpy [kJ/mol] | excess molar volume [m3/mol]
[3], x2 = 0.051 | 0.153 | –
[3], x2 = 0.1288 | 0.274 | –
[3], x2 = 0.2035 | 0.356 | –
[3], x2 = 0.2736 | 0.393 | –
[3], x2 = 0.3385 | 0.4 | –
[3], x2 = 0.3939 | 0.393 | –
[3], x2 = 0.4477 | 0.377 | –
[3], x2 = 0.4974 | 0.361 | –
[3], x2 = 0.543 | 0.342 | –
[3], x2 = 0.6198 | 0.27 | –
[3], x2 = 0.6816 | 0.245 | –
[3], x2 = 0.748 | 0.219 | –
[3], x2 = 0.8179 | 0.199 | –
[3], x2 = 0.8911 | 0.148 | –
[3], x2 = 0.9686 | 0.0938 | –
[4], x2 = 0.1356 | – | -9.8e-08
[4], x2 = 0.2201 | – | -1.47e-07
[4], x2 = 0.2921 | – | -1.74e-07
[4], x2 = 0.4102 | – | -2.06e-07
[4], x2 = 0.5144 | – | -2.26e-07
[4], x2 = 0.5994 | – | -2.32e-07
[4], x2 = 0.6915 | – | -2.21e-07
[4], x2 = 0.8044 | – | -1.86e-07
[4], x2 = 0.9237 | – | -9.6e-08

CC(C)(C)O [2-methylpropan-2-ol]
Settings | mass density [kg/m3] | refractive index
[1] | – | 1.3851
[2] | 776.16 | –

CC(C)(C)O [2-methylpropan-2-ol] + CN1CCCC1=O
Settings | excess molar enthalpy [kJ/mol] | excess molar volume [m3/mol]
[3], x2 = 0.0634 | 0.0932 | –
[3], x2 = 0.1313 | 0.25 | –
[3], x2 = 0.2034 | 0.393 | –
[3], x2 = 0.2666 | 0.489 | –
[3], x2 = 0.3319 | 0.565 | –
[3], x2 = 0.3942 | 0.607 | –
[3], x2 = 0.4382 | 0.595 | –
[3], x2 = 0.4828 | 0.587 | –
[3], x2 = 0.5381 | 0.574 | –
[3], x2 = 0.6026 | 0.534 | –
[3], x2 = 0.6733 | 0.471 | –
[3], x2 = 0.7442 | 0.406 | –
[3], x2 = 0.829 | 0.277 | –
[3], x2 = 0.9194 | 0.143 | –
[4], x2 = 0.1121 | – | -3.2e-08
[4], x2 = 0.2423 | – | -8.4e-08
[4], x2 = 0.3215 | – | -1.16e-07
[4], x2 = 0.4128 | – | -1.36e-07
[4], x2 = 0.4601 | – | -1.52e-07
[4], x2 = 0.5403 | – | -1.48e-07
[4], x2 = 0.6359 | – | -1.42e-07
[4], x2 = 0.7246 | – | -1.18e-07
[4], x2 = 0.8032 | – | -9e-08
[4], x2 = 0.8404 | – | -6.4e-08
[4], x2 = 0.9238 | – | -2.6e-08

CC(C)CCO [3-methylbutan-1-ol]
Settings | mass density [kg/m3] | refractive index
[1] | – | 1.4053
[2] | 801.76 | –

CC(C)CCO [3-methylbutan-1-ol] + CN1CCCC1=O
Settings | excess molar enthalpy [kJ/mol] | excess molar volume [m3/mol]
[3], x2 = 0.0777 | 0.165 | –
[3], x2 = 0.149 | 0.304 | –
[3], x2 = 0.2286 | 0.421 | –
[3], x2 = 0.3011 | 0.468 | –
[3], x2 = 0.3692 | 0.502 | –
[3], x2 = 0.4301 | 0.497 | –
[3], x2 = 0.4847 | 0.485 | –
[3], x2 = 0.5348 | 0.471 | –
[3], x2 = 0.5484 | 0.479 | –
[3], x2 = 0.5792 | 0.451 | –
[3], x2 = 0.6031 | 0.432 | –
[3], x2 = 0.6712 | 0.378 | –
[3], x2 = 0.744 | 0.326 | –
[3], x2 = 0.8153 | 0.257 | –
[3], x2 = 0.8821 | 0.174 | –
[3], x2 = 0.9444 | 0.0886 | –
[4], x2 = 0.0999 | – | -7.8e-08
[4], x2 = 0.2737 | – | -1.69e-07
[4], x2 = 0.3718 | – | -1.97e-07
[4], x2 = 0.4155 | – | -2.09e-07
[4], x2 = 0.5254 | – | -2.01e-07
[4], x2 = 0.6399 | – | -1.76e-07
[4], x2 = 0.7034 | – | -1.49e-07
[4], x2 = 0.8699 | – | -7.3e-08
[4], x2 = 0.9384 | – | -3.6e-08

CN1CCCC1=O [N-methylpyrrolidone]
Settings | mass density [kg/m3] | refractive index
[1] | – | 1.4674
[2] | 1023.4 | –

CN1CCCC1=O [N-methylpyrrolidone] + CC(C)O
Settings | excess molar enthalpy [kJ/mol] | excess molar volume [m3/mol]
[3], x1 = 0.0516 | 0.296 | –
[3], x1 = 0.1082 | 0.573 | –
[3], x1 = 0.1702 | 0.797 | –
[3], x1 = 0.2279 | 0.932 | –
[3], x1 = 0.2894 | 1 | –
[3], x1 = 0.3471 | 1.04 | –
[3], x1 = 0.4059 | 1.03 | –
[3], x1 = 0.4562 | 0.994 | –
[3], x1 = 0.595 | 0.73 | –
[3], x1 = 0.6888 | 0.614 | –
[3], x1 = 0.7874 | 0.474 | –
[3], x1 = 0.892 | 0.271 | –
[4], x1 = 0.1498 | – | -5.2e-08
[4], x1 = 0.2066 | – | -7.8e-08
[4], x1 = 0.3202 | – | -1.29e-07
[4], x1 = 0.4317 | – | -1.57e-07
[4], x1 = 0.5027 | – | -1.62e-07
[4], x1 = 0.5854 | – | -1.66e-07
[4], x1 = 0.7216 | – | -1.42e-07
[4], x1 = 0.8148 | – | -1.06e-07
[4], x1 = 0.9062 | – | -5.8e-08

CN1CCCC1=O [N-methylpyrrolidone] + CCC(C)O
Settings | excess molar enthalpy [kJ/mol] | excess molar volume [m3/mol]
[3], x1 = 0.0691 | 0.173 | –
[3], x1 = 0.1595 | 0.392 | –
[3], x1 = 0.2388 | 0.517 | –
[3], x1 = 0.3106 | 0.561 | –
[3], x1 = 0.3733 | 0.584 | –
[3], x1 = 0.4822 | 0.571 | –
[3], x1 = 0.5305 | 0.55 | –
[3], x1 = 0.5614 | 0.517 | –
[3], x1 = 0.6341 | 0.457 | –
[3], x1 = 0.7217 | 0.365 | –
[3], x1 = 0.8176 | 0.25 | –
[3], x1 = 0.9067 | 0.137 | –
[4], x1 = 0.1046 | – | -6.5e-08
[4], x1 = 0.1831 | – | -1.26e-07
[4], x1 = 0.249 | – | -1.62e-07
[4], x1 = 0.3096 | – | -1.93e-07
[4], x1 = 0.3777 | – | -2.19e-07
[4], x1 = 0.4817 | – | -2.38e-07
[4], x1 = 0.5739 | – | -2.3e-07
[4], x1 = 0.6355 | – | -2.16e-07
[4], x1 = 0.7494 | – | -1.64e-07
[4], x1 = 0.8086 | – | -1.36e-07
[4], x1 = 0.9142 | – | -6.4e-08

CCC(C)O (stereo not given) [butan-2-ol]
Settings | mass density [kg/m3] | refractive index
[1] | – | 1.3954
[2] | 798.92 | –

CC(C)O [propan-2-ol]
Settings | mass density [kg/m3] | refractive index
[1] | – | 1.375
[2] | 776.88 | –
